{"source": "patent US20060205771A1", "about": "“Caspase inhibitors as anticancer agents” (priority 2002, published 2006)", "key": {"[1]": {"test_system": "SW480 colon cancer cells", "test": "cisplatin-induced death of SW480 colon cancer cells", "assay_type": "cell-based", "settings": "cisplatin alone, FIG. 10"}, "[2]": {"molecular_target": "T1, caspase-3 (Homo sapiens, UniProt P42574)", "T1 sequence (P42574 29-175 limits assumed)": "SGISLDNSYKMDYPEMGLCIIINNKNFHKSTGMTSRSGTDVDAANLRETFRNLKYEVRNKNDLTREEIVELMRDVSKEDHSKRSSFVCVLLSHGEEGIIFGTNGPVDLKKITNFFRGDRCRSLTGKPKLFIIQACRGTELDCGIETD", "T1 sequence (P42574 176-277 limits assumed)": "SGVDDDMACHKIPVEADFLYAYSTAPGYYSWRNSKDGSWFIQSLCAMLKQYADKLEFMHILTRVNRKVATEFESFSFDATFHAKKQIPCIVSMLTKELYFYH", "settings": "cited from earlier work"}, "[3]": {"test_system": "human liver cells", "settings": "cited from earlier work"}, "[4]": {"molecular_target": "T2, Caspase-1 (Homo sapiens, UniProt P29466)", "T2 sequence (P29466 120-297 limits assumed)": "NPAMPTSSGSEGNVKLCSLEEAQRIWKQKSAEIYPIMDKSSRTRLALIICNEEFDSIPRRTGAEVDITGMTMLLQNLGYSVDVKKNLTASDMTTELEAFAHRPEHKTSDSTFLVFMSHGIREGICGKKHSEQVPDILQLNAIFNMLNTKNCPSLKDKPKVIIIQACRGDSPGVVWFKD", "T2 sequence (P29466 317-404 limits assumed)": "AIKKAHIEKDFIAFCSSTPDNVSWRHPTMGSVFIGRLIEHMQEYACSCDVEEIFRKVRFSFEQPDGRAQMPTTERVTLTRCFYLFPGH", "settings": "cited from earlier work"}, "[5]": {"test_system": "NIH3T3 cells", "settings": "cited from earlier work"}, "[6]": {"test_system": "UT-9 astrocytoma cell line", "test": "survival of UT-9 astrocytoma cell line (MTT/DAPI count)", "assay_type": "cell-based", "settings": "BCNU alone at doses equivalent to those used for 1789 and UT-12, FIG. 5", "experimental": "(§1) A variety of cells were exposed to BCNU (also known as carmustine) in the presence of a variety of caspase inhibitors. This alkylating agent is frequently employed in the treatment of cancers of the central nervous system, as well as for treatment of certain lymphomas. The growth of tumor cells and normal human brain precursor cells in chemically-defined medium was assayed under various conditions of alkylating agent and/or caspase inhibitor. Cells were exposed to BCNU at varying dosages, depending upon the outcome of characterization of their sensitivity to BCNU. In general, dosages were employed for which it would be possible to recognize protection from the cytotoxic effects of this alkylating agent, as well as to recognize increased anticancer activity depending on the conditions, of for example, the caspase inhibitor and the activity of this compound.\n(§2) After 24 hours, cells were pretreated for 1 hour with caspase inhibitors at a concentration of 20 microM, following exposure to BCNU for 1 hour at concentrations that would kill approximately 50% of the tumor cells, as determined by dose-response experiments. In general, the BCNU concentration applied ranged from 5 microg/ml to 20 microg/ml. Exposure periods were based upon the known clearance rate of BCNU in vivo. […] Percentages of cell survival were normalized to controls. All experiments were performed at least as quadruplicates. […]"}, "[7]": {"test_system": "normal astrocytes", "test": "BCNU cytotoxicity on normal astrocytes", "assay_type": "cell-based", "settings": "agent alone, FIG. 8", "experimental": "as §1"}, "[8]": {"test_system": "SW480 (colon adenocarcinoma)", "settings": "SW480 cell line; cited from earlier work"}, "[9]": {"test_system": "H460 (non-small cell lung cancer)", "settings": "H460 cell line; cited from earlier work"}, "[10]": {"test_system": "UT-12 glioblastoma cell line", "test": "survival of UT-12 glioblastoma cell line (MTT/DAPI count)", "assay_type": "cell-based", "settings": "UT-12 glioma cells; FIG. 6", "experimental": "as §1, §2"}}, "note": "*: point of attachment. Cbz = O=C(OCc1ccccc1)*; CH2F = FC*"}
{"compound": "N.N.[Cl][Pt][Cl]", "note": "[cisplatin, Cisplatin]", "values": [{"measurement": "cell death / reduction in number of cells", "setting": "[1]", "value": "cisplatin-induced death"}]}
{"compound": "c-DEVD-CHO", "values": [{"measurement": "inhibition of caspase-3", "setting": "[2]", "value": "inhibits preferentially (but not specifically) caspase-3"}]}
{"compound": "TRAIL: tumor necrosis factor-related apoptosis-inducing ligand", "values": [{"measurement": "induction of cell death", "setting": "[3]", "value": "induces cell death in human liver cells by a caspase-9 dependent mechanism"}]}
{"compound": "Ac-YVAD-CHO", "values": [{"measurement": "inhibition of Caspase-1", "setting": "[4]", "value": "strong inhibitor of Caspase-1"}]}
{"compound": "COc1ccc(O)c(C(C)(C)C)c1", "note": "[BHA, butylated hydroxyanisole]", "values": [{"measurement": "protection from cytotoxicity of tumor necrosis factor plus caspase-8 inhibition", "setting": "[5]; pretreatment, Luschen et al.", "value": "protected NIH3T3 cells from cytotoxicity induced by the combination of tumor necrosis factor and caspase-8 inhibition"}]}
{"compound": "zVAD.fmk", "values": [{"measurement": "sensitization to the action of TNF", "setting": "[5]; Luschen et al, 2000", "value": "Sensitization to the action of TNF"}]}
{"compound": "O=NN(CCCl)C(=O)NCCCl", "note": "[BCNU, carmustine]", "values": [{"measurement": "reduction in cell number", "setting": "[6]", "value": "causes only a minor reduction in cell number"}, {"measurement": "killing of astrocytes", "setting": "[7]", "value": "Astrocytes were killed by BCNU"}]}
{"compound": "Cbz-LEHD-CH2F", "values": [{"measurement": "protection from TRAIL-associated toxicity", "setting": "[3]", "value": "effectively protects liver cells from TRAIL-associated toxicity"}, {"measurement": "protection from TRAIL induced death", "setting": "[8]", "value": "did not protect"}, {"measurement": "protection from TRAIL induced death", "setting": "[9]", "value": "did not protect"}]}
{"compound": "O=C1O[C@H]([C@@H](O)CO)C(O)=C1O", "note": "[Vitamin C, ascoribic acid]", "values": [{"measurement": "cell killing by the full combination (caspase 9 and pan-caspase inhibition, BCNU, Vitamin C)", "setting": "[10]", "value": "kills all of the UT-12 glioma cells"}]}
